From PubChem BioAssay AID1386 (Sanford-Burnham Center for Chemical Genomics, 2008)

Tested on: mouse primary cortical neurons, thapsigargin death, survival counting
Experiment: ER stress death suppression in cortical neurons – imaging, mouse primary cortical neurons, immunostaining, death counting, ER stress cell death inhibitors, late-stage follow-up (AID 1386)
Conditions: at 25 µM

COc1ccc(C2CC(=O)C3=C(C2)Nc2ccccc2NC3c2cccc(Oc3ccccc3)c2)cc1OC (configuration not stated)
survival (stronger effect = higher value): 87%
survival (measured here: survival without thapsigargin): 91%
